Consider three compounds from patent US5605895A, “Cephalosporin antibiotics and processes for preparation thereof” (Lucky, Ltd., priority 1993, dated 1997).

One data set has as its system A. calcoaceticus 15473A. Put plainly: Minimum inhibitory concentration, agar dilution. It counts as cell-based. The following applies: Acinetobacter calcoaceticus, Muller-Hinton agar, 10^7 CFU per ml, 37° C., 20 hours. How it is done:
(§1) The minimum inhibitory concentration was determined by diluting the test compounds according to 2-fold dilution, suspending them in M uller-Hinton agar medium, inoculating the test strains having 10^7 CFU per 1 ml into the medium and then culturing the medium at 37° C. for 20 hours.

For the next data set, the system named is E. cloacae 1194E. Description: Minimum inhibitory concentration, agar dilution. The class given is cell-based. The conditions noted are these: Enterobacter cloacae, read-out: Minimum Inhibitory Concentration. Here is the method:
as §1
A general note: In agar dilution the substance is mixed into plates at graded concentrations.

In a further data set the test system is E. coli 10536. Description: Minimum inhibitory concentration, agar dilution. The class given is cell-based. The following applies: read-out: Minimum Inhibitory Concentration. Here is the method: as §1
The test system of the next data set is E. coli 3190Y. Description: Minimum inhibitory concentration, agar dilution. The class given is cell-based. The conditions noted are these: Escherichia coli, read-out: Minimum Inhibitory Concentration. Here is the method:
as §1

The test system of another data set is E. coli TEM1 1193E. Description: Minimum inhibitory concentration, agar dilution. The class given is cell-based. The conditions noted are these: Escherichia coli, TEM11193E, 20 h, read-out: Minimum Inhibitory Concentration. Here is the method:
as §1

The next data set relates to E. coli TEM5 3739E. Put plainly: Minimum inhibitory concentration, agar dilution. It counts as cell-based. The following applies: Escherichia coli, TEM53739E, 20 h, read-out: Minimum Inhibitory Concentration. Here is the method: as §1
For a further data set, the system named is E. coli TEM9 2639E. Description: Minimum inhibitory concentration, agar dilution. The conditions noted are these: Escherichia coli, TEM92639E, 20 h, read-out: Minimum Inhibitory Concentration. It counts as cell-based. Here is the method: as §1
The test system of another data set is K. aerogenes 1976E. Description: Minimum inhibitory concentration, agar dilution. It counts as cell-based. The following applies: Klebsiella aerogenes, Muller-Hinton agar, 10^7 CFU per ml, 37° C., 20 hours. How it is done:
as §1

Another data set relates to P. aeruginosa 10145. Put plainly: Minimum inhibitory concentration, agar dilution. It counts as cell-based. The following applies: Pseudomonas aeruginosa, Muller-Hinton agar, 10^7 CFU per ml, 37° C., 20 hours. Here is the method: as §1
For a further data set, the system named is P. aeruginosa 1912E. Put plainly: Minimum inhibitory concentration, agar dilution. The class given is cell-based. The following applies: Pseudomonas aeruginosa, 20 h, read-out: Minimum Inhibitory Concentration. How it is done: as §1
A further data set has as its system P. aeruginosa 6065Y. Put plainly: Minimum inhibitory concentration, agar dilution. It counts as cell-based. The conditions noted are these: Pseudomonas aeruginosa, 20 h, read-out: Minimum Inhibitory Concentration. How it is done:
as §1

In the next data set the test system is S. aureus 6538pA. Put plainly: Minimum inhibitory concentration, agar dilution. It counts as cell-based. The following applies: Staphylococcus aureus, Muller-Hinton agar, 10^7 CFU per ml, 37° C., 20 hours. Here is the method: as §1
The next data set concerns S. aureus giorigio. Put plainly: Minimum inhibitory concentration, agar dilution. The class given is cell-based. The following applies: Staphylococcus aureus, Muller-Hinton agar, 10^7 CFU per ml, 37° C., 20 hours. Here is the method: as §1
The test system of a further data set is S. faecalis 29212A. Put plainly: Minimum inhibitory concentration, agar dilution. The class given is cell-based. The following applies: Enterococcus faecalis, read-out: Minimum Inhibitory Concentration. Here is the method: as §1
The next data set deals with S. marcescens 1826E. Put plainly: Minimum inhibitory concentration, agar dilution. It counts as cell-based. The conditions noted are these: Serratia marcescens, Muller-Hinton agar, 10^7 CFU per ml, 37° C., 20 hours. How it is done: as §1
In a further data set the test system is S. typhimurium 14028A. Description: Minimum inhibitory concentration, agar dilution. It counts as cell-based. The conditions noted are these: Salmonella enterica, read-out: Minimum Inhibitory Concentration. Here is the method: as §1
Data set [1] can be described thus: Pharmacokinetic properties in SD rats. The conditions noted are these: rat; SD rats (male), intravenous, 20 mg/kg; blood, biological assay (agar well method). The class given is in vivo. How it is done: The pharmacokinetic properties of the compound of the present invention were determined using SD rats (.male.) weighing 220 to 340 g. Specifically, the test samples were administered in intravenous route in an amount of 20 mg/kg to 2 to 5 test animals. Blood was taken from femoral vein every hours after the administration and then subjected to a biological assay using agar well method to measure the blood concentration. The results of pharmacokinetic properties calculated from the above blood concentration are described in the following Table 3.

Setting [2] is: Escherichia coli, E. coli 10536, Muller-Hinton agar, 10^7 CFU per ml, 37° C., 20 hours.
[3] abbreviates: S. faecalis 29212A, Muller-Hinton agar, 10^7 CFU per ml, 37° C., 20 hours.
Setting [4] is: S. typhimurium 14028A, Muller-Hinton agar, 10^7 CFU per ml, 37° C., 20 hours.

≈ marks a conversion by molar mass, not a printed value. Read-outs that look alike come from different tables or passages of the source.

As usually defined, the AUC is the area under the concentration-time curve, a measure of exposure. As a reminder, the half-life is the time needed for the level to fall by half in the phase considered. A lower half-life goes with rapid decline. `C[n+]1ccc(N)nc1SCC1=C(C(=O)[O-])N2C(=O)C(NC(=O)/C(=N\OC(C(=O)O)c3ccc(O)c(O)c3)c3csc(N)n3)[C@H]2SC1` (stereo partly drawn) [I-5(a), 7-[(Z)-2-(2-aminothiazol-4-yl)-2-(α-carboxy-3,4-dihydroxybenzyloxyimino)acetamido]-3-(4-amino-1-methylpyrimidinium-2-yl)thiomethyl-3-cephem-4-carboxylate]: the MIC with A. calcoaceticus 15473A was 0.5 µg/mL (≈ 0.726 µM); in the data set on E. cloacae 1194E (1194E, 20 h), 4 µg/mL (≈ 5.81 µM); with E. coli 10536 (setting [2]), 0.031 µg/mL (≈ 0.045 µM); in the data set with E. coli 3190Y (3190Y, 20 h), 0.063 µg/mL (≈ 0.0915 µM); in the data set on E. coli TEM1 1193E it was 0.063 µg/mL (≈ 0.0915 µM); in the data set with E. coli TEM5 3739E, 0.5 µg/mL (≈ 0.726 µM). The MIC in the data set on E. coli TEM9 2639E was 2 µg/mL (≈ 2.9 µM); in the data set on K. aerogenes 1976E, 0.25 µg/mL (≈ 0.363 µM); in the data set with P. aeruginosa 10145, 0.5 µg/mL (≈ 0.726 µM); in the data set with P. aeruginosa 1912E, 0.5 µg/mL (≈ 0.726 µM); in the data set with P. aeruginosa 6065Y, 1 µg/mL (≈ 1.45 µM); with S. aureus 6538pA it was 0.5 µg/mL (≈ 0.726 µM). For the same compound, the MIC in the data set on S. aureus giorigio amounted to 0.25 µg/mL (≈ 0.363 µM); in the data set with S. faecalis 29212A (setting [3]), 64 µg/mL (≈ 92.9 µM); with S. marcescens 1826E, 0.5 µg/mL (≈ 0.726 µM); in the data set with S. typhimurium 14028A (setting [4]), 0.031 µg/mL (≈ 0.045 µM). In data set [1], the AUC was 43600 ng·h/mL. The compound also gave a half-life in data set [1] of 39 min.
`Nc1cc[n+](N)c(SCC2=C(C(=O)[O-])N3C(=O)C(NC(=O)C(=NOC(C(=O)O)c4ccc(O)c(O)c4)c4csc(N)n4)C3SC2)n1` (stereo not drawn) [I-4(a), 7-[(Z)-2-(2-aminothiazol-4-yl)-2-(α-carboxy-3,4-dihydroxybenzyloxyimino)acetamide]-3-(1,4-diaminopyrimidinium-2-yl)thiomethyl-3-cephem-4-carboxylate]: the MIC in the data set with A. calcoaceticus 15473A is 0.25 µg/mL (≈ 0.362 µM); in the data set on E. cloacae 1194E (1194E, 20 h), 1 µg/mL (≈ 1.45 µM); in the data set on E. coli 10536 (setting [2]), 0.016 µg/mL (≈ 0.0232 µM); in the data set on E. coli 3190Y (3190Y, 20 h), 0.063 µg/mL (≈ 0.0913 µM); in the data set with E. coli TEM1 1193E it was 0.063 µg/mL (≈ 0.0913 µM); in the data set with E. coli TEM5 3739E, 0.5 µg/mL (≈ 0.725 µM). The MIC turned out to be 1 µg/mL (≈ 1.45 µM) in the data set with E. coli TEM9 2639E; 0.13 µg/mL (≈ 0.188 µM) in the data set on K. aerogenes 1976E; 0.25 µg/mL (≈ 0.362 µM) against P. aeruginosa 10145; 0.25 µg/mL (≈ 0.362 µM) in the data set with P. aeruginosa 1912E; 0.5 µg/mL (≈ 0.725 µM) in the data set with P. aeruginosa 6065Y; 1 µg/mL (≈ 1.45 µM) with S. aureus 6538pA. Moreover, the MIC against S. aureus giorigio came to 0.5 µg/mL (≈ 0.725 µM); with S. faecalis 29212A (setting [3]) it was 64 µg/mL (≈ 92.8 µM); against S. marcescens 1826E, 0.25 µg/mL (≈ 0.362 µM); with S. typhimurium 14028A (setting [4]) it was 0.031 µg/mL (≈ 0.0449 µM). This compound also gave an area under the curve (AUC) in data set [1] of 52900 ng·h/mL. This compound also registered a half-life in data set [1] of 50 min.
With `C[n+]1c(N)cc(N)nc1SCC1=C(C(=O)[O-])N2C(=O)C(NC(=O)C(=NOC(C(=O)O)c3ccc(O)c(O)c3)c3csc(N)n3)C2SC1` (stereo not drawn) [I-3(a), 7-[(Z)-2-(2-aminothiazol-4-yl)-2-(α-carboxy-3,4-dihydroxybenzyloximio)acetamido]-3-(4,6-diamino-1-methylpyrimidinium-2-yl)thiomethyl-3-cephem-4-carboxylate], the MIC in the data set with A. calcoaceticus 15473A is 0.5 µg/mL (≈ 0.71 µM); with E. cloacae 1194E (E. cloacae 1194E, Muller-Hinton agar, 10^7 CFU per ml, 37° C., 20 hours), 8 µg/mL (≈ 11.4 µM); in the data set on E. coli 10536 (Escherichia coli, 10536, 20 h), 0.063 µg/mL (≈ 0.0895 µM); in the data set on E. coli 3190Y (E. coli 3190Y, Muller-Hinton agar, 10^7 CFU per ml, 37° C., 20 hours), 0.031 µg/mL (≈ 0.0441 µM); in the data set on E. coli TEM1 1193E, 0.063 µg/mL (≈ 0.0895 µM); with E. coli TEM5 3739E, 0.5 µg/mL (≈ 0.71 µM). In addition, the MIC in the data set with E. coli TEM9 2639E was 4 µg/mL (≈ 5.68 µM); in the data set on K. aerogenes 1976E, 0.25 µg/mL (≈ 0.355 µM); with P. aeruginosa 10145 it was 0.5 µg/mL (≈ 0.71 µM); with P. aeruginosa 1912E, 0.5 µg/mL (≈ 0.71 µM); with P. aeruginosa 6065Y it was 1 µg/mL (≈ 1.42 µM); in the data set on S. aureus 6538pA it was 0.5 µg/mL (≈ 0.71 µM). The MIC worked out at 0.5 µg/mL (≈ 0.71 µM) against S. aureus giorigio; 32 µg/mL (≈ 45.5 µM) with S. faecalis 29212A (29212A, 20 h); 0.5 µg/mL (≈ 0.71 µM) against S. marcescens 1826E; 0.063 µg/mL (≈ 0.0895 µM) with S. typhimurium 14028A (TYPHIMURIUM, 20 h). Further, in data set [1], the exposure (AUC) was 55400 ng·h/mL. The same compound displayed a half-life in data set [1] of 53 min.
